In patent US20230146395A1, “Substituted Pyrimidines and Uses Thereof” (Verge Analytics, Inc., priority 2020, published 2023):

Tests used:
[1] = system: ALS patient (SOD1 A4V) iPSC derived motor neurons; assay: iPSC MN Survival assay (GFP imaging, six days, hazard ratio from Cox regression); type: cell-based; conditions: Homo sapiens, survival rescue, read-out: C9 iPSC MN Significant survival rescue EC50
[2] = molecular target: T1, Full length human recombinant PIKFYVE (Homo sapiens, UniProt Q9Y2I7); assay: Inhibition of PIKfyve (microfluidic electrophoresis kinase assay, PI3P/PS substrate); type: biochemical; conditions: 12 concentrations
T1 construct: Full length human recombinant PIKFYVE; purchased Carna Biosciences (Kobe, Japan); host or cells: baculovirus expression system
T1 sequence (Q9Y2I7 whole entry): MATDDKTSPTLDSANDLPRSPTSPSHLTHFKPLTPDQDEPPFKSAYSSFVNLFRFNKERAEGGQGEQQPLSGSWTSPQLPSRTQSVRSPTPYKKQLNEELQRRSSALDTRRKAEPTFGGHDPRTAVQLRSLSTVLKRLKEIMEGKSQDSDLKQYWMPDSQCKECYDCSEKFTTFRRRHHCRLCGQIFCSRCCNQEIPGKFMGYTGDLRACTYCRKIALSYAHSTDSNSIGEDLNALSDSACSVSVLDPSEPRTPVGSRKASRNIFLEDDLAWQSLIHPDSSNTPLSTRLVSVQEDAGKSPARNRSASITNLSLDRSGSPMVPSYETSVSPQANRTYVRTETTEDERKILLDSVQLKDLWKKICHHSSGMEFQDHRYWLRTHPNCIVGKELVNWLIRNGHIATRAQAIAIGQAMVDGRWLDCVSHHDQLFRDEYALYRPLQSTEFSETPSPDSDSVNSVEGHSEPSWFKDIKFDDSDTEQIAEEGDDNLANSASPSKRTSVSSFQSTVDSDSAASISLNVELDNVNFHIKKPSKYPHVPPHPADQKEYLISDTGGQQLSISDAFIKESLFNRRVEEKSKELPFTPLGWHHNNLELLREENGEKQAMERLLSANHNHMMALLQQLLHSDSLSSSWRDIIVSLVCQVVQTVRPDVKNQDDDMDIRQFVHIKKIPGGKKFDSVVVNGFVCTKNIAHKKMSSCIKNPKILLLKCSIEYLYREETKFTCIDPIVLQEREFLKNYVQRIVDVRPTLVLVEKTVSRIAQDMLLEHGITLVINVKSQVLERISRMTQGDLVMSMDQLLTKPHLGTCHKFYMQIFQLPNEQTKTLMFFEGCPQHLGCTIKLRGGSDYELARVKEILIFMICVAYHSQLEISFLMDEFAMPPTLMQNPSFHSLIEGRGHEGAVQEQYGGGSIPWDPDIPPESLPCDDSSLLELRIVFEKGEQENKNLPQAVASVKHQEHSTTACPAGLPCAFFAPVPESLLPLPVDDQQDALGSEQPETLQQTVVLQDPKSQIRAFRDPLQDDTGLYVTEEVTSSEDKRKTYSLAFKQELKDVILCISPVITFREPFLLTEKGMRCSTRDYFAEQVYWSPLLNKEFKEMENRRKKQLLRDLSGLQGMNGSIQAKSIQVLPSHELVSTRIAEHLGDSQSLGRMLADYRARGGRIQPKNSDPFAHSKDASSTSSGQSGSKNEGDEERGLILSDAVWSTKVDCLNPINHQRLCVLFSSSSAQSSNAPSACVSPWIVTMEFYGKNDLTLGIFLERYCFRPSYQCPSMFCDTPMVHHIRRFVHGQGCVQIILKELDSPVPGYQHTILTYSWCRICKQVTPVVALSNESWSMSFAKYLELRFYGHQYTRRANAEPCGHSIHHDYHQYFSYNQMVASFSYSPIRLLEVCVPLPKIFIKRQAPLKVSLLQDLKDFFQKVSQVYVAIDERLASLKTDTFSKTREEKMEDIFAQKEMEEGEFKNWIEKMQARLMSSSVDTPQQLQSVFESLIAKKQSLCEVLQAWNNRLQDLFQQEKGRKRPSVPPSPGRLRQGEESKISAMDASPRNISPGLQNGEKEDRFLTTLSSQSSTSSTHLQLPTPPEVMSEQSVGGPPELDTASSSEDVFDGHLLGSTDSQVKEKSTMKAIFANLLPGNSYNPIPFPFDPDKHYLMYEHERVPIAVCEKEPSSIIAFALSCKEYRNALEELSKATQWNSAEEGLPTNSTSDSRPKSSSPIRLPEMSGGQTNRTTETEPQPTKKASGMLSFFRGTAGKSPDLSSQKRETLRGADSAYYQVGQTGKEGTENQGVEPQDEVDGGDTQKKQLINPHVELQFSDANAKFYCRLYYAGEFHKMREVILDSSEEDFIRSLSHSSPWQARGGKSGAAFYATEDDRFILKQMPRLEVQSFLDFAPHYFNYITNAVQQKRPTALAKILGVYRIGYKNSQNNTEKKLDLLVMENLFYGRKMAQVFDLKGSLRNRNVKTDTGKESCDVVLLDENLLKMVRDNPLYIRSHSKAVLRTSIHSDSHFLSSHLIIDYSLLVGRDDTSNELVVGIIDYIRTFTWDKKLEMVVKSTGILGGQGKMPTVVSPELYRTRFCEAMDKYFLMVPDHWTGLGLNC
Outline: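 Percent inhibition, from 12 concentrations, was derived from the product/(substrate+product) peak ratio separated by microfluidic electrophoresis, normalized to DMSO-only and enzyme-free controls. Reactions ran 3 h at room temperature: 2 nM N-terminal GST-PIKFYVE, 1 μM fluorescent PI3P in PS vesicles, […], HEPES pH 7.5, MgCl2/MnCl2.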

[3] = system: HEK 293T transfected with plasmids containing TDP-43 Q331K mutation; assay: HEK/TDP Survival assay (Cell-Titer-Glo, 48 hrs, maximal effect of rescue); type: cell-based; conditions: Homo sapiens, HEK 293T with TDP-43 Q331K, (n) in brackets
Description: HEK/TDP Survival assay: Immortalized human embryonic kidney 293T (HEK 293T) were transfected with plasmids containing TDP-43 Q331K mutation, resulting in an increase in cell death that is biologically relevant to ALS patients. Cell death is measured as reductions in the amount of ATP, an indicator of metabolically active cells, that is quantified by a luminescence Cell-Titer-Glo® (CTG) reagent. Compounds are evaluated in this model for changes in CTG compared to a no treatment group. Increased signal indicates improved survival (rescue) and decreased signal indicates decreased survival.
Cell rescue was measured in a 96-well format with eight different concentrations of the test compound over 48 hours (hrs) with 6 replicates. The Promega Cell-Titer-Glo® Luminescent Cell Viability Assay was used to quantify ATP, an indicator of metabolically active cells (see protocol: https://www.promega.com/-/media/files/resources/protocols/technical-manuals/101/celltiterglo-2-0-assay-protocol.pdf?la=en). The luminescence signal was detected using the PerkinElmer EnVision or Molecular Devices SpectraMax.
The effect of a compound at a given dose on cell viability was determined using a three step procedure. First, Hedge's g for the Cell Titer-Glo luminescence values using six untreated wells on every plate as a control was calculated. […] Finally, values from all compound-dose pairs were corrected for multiple hypothesis testing using the Empirical Bayes framework of Stephens, M. (False discovery rates: a new deal, Biostatistics, 18 [2], 2017, 275-294) yielding credible intervals for the measured effect and associated s values.
Briefly, this method computes a local false sign rate for each experiment. Analogous to the local false discovery rate of Efron, B. (Size, power and false discovery rates, Ann. Statist. 35 [4], 2007, 1351-1377) this value measures the confidence in the sign of each effect (rather than confidence in each effect being non-zero). The s values reported in the previous figures are the expected fraction of errors if estimating the sign of all effects with greater absolute local false sign rate, defined in analogy to the q value of Storey, JD (The positive false discovery rate: a Bayesian interpretation and the q-value, Ann. Statist. 31 [6] 2003, 2013-2035).
Drugs that yielded signed log s values greater than 3 were considered hits. This threshold was determined by a separate calibration experiment in which Cell Titer-Glo® was measured in blank plates consisting of untreated cells to assess the noise inherent in the assay. Data are presented as the maximal effect of rescue obtained from the dose-response curve.

Structure (SMILES)	IC50 [2] [µM]	EC50 [1] [µM]	EC50 [3] [nM]
Cc1cccc(-c2ccn(-c3nc(N4CCOCC4)c4oc(C(=O)NC5COC5)cc4n3)n2)c1 [Compound 104, 4-morpholino-N-(oxetan-3-yl)-2-(3-(m-tolyl)-1H-pyrazol-1-yl)furo[3,2-d]pyrimidine-6-carboxamide]	0.0412		98
Cc1cccc(-c2cnn(-c3nc(N4CCOCC4)c4oc(C(=O)NCC5CC5)cc4n3)c2)c1 [Compound 115, N-(cyclopropylmethyl)-4-morpholino-2-(4-(m-tolyl)-1H-pyrazol-1-yl)furo[3,2-d]pyrimidine-6-carboxamide]	0.0031		35.7
Cc1cccc(-c2cnn(-c3nc(N4CCOCC4)c4oc(C(=O)NC5CCOC5)cc4n3)c2)c1 (centres unmarked) [Compound 126, 4-morpholino-N-(tetrahydrofuran-3-yl)-2-(4-(m-tolyl)-1H-pyrazol-1-yl)furo[3,2-d]pyrimidine-6-carboxamide]	0.0029		30.5
Cc1cccc(-c2cnn(-c3nc(N4CCOCC4)c4oc(C(=O)NC5CCN(C)C5)cc4n3)c2)c1 (centres unmarked) [Compound 124, N-(1-methylpyrrolidin-3-yl)-4-morpholino-2-(4-(m-tolyl)-1H-pyrazol-1-yl)furo[3,2-d]pyrimidine-6-carboxamide]	0.0047		48
CCNC(=O)c1cc2nc(-n3ccc(-c4cccc(C)c4)n3)nc(N3CCOCC3)c2o1 [Compound 95, N-ethyl-4-morpholino-2-(3-(m-tolyl)-1H-pyrazol-1-yl)furo[3,2-d]pyrimidine-6-carboxamide]	0.0118		94
CCNC(=O)c1cc2nc(-n3cc(-c4cccc(C)c4)cn3)nc(N3CCOCC3)c2o1 [Compound 101, N-ethyl-4-morpholino-2-(4-(m-tolyl)-1H-pyrazol-1-yl)furo[3,2-d]pyrimidine-6-carboxamide]	0.0029	1	
Cc1cccc(-c2cnn(-c3nc(N4CCOCC4)c4oc(-c5ccccn5)cc4n3)c2)c1 [Compound 103, 4-morpholino-6-(pyridin-2-yl)-2-(4-(m-tolyl)-1H-pyrazol-1-yl)fur[3,2-d]pyrimidine]	0.0112	1	
Cc1cccc(-c2cnn(-c3nc(N4CCOCC4)c4oc(-c5cc(C)n[nH]5)cc4n3)c2)c1 [Compound 144, 6-(3-methyl-1H-pyrazol-5-yl)-4-morpholino-2-(4-(m-tolyl)-1H-pyrazol-1-yl)furo[3,2-d]pyrimidine]	0.0003		13
Cc1cccc(-c2cnn(-c3nc(N4CCOCC4)c4oc(-c5cc(C)nn5CCN(C)C)cc4n3)c2)c1 [Compound 145, N,N-dimethyl-2-[3-methyl-5-[4-morpholino-2-[4-(m-tolyl)pyrazol-1-yl]furo[3,2-d]pyrimidin-6-yl]pyrazol-1-yl]ethanamine]	0.0186		27
Cc1cccc(-c2cnn(-c3nc(N4CCOCC4)c4oc(C(=O)NCCCN(C)C)cc4n3)c2)c1 [Compound 111, N-(3-(dimethylamino)propyl)-4-morpholino-2-(4-(m-tolyl)-1H-pyrazol-1-yl)furo[3,2-d]pyrimidine-6-carboxamide]	0.0031		35.5
Cc1cccc(-c2cnn(-c3nc(N4CCOCC4)c4oc(C(=O)NC5CC5)c(C)c4n3)c2)c1 [Compound 127, N-cyclopropyl-7-methyl-4-morpholino-2-(4-(m-tolyl)-1H-pyrazol-1-yl)furo[3,2-d]pyrimidine-6-carboxamide]	0.034		48
Cc1cccc(-c2ccn(-c3nc(N4CCOCC4)c4oc(-c5cccnc5)cc4n3)n2)c1 [Compound 90]	0.0077		20.5

The remaining compounds from weak to strong by IC50 [2], led by results:

IC50 [2] [µM]	Structure (SMILES)	EC50 [1] [µM]	EC50 [3] [nM]
0.0399	[2H]C1([2H])OC([2H])([2H])C([2H])([2H])N(c2nc(-n3cc(-c4cccc(C)c4)cn3)nc3cc(-c4cccnc4)oc23)C1([2H])[2H] [Compound 132, 4-morpholino (dg)-6-(pyridin-3-yl)-2-(4-(m-tolyl)-1H-pyrazol-1-yl)furo[3,2-d]pyrimidine]		15
0.0373	COCCNC(=O)c1cc2nc(-n3cc(-c4cccc(C)c4)cn3)nc(N3CCOCC3)c2o1 [Compound 117, N-(2-methoxyethyl)-4-morpholino-2-(4-(m-tolyl)-1H-pyrazol-1-yl)fur[3,2-d]pyrimidine-6-carboxamide]		74.3
0.025	Cc1cccc(-c2cnn(-c3nc(N4CCOCC4)c4oc(-c5ccncn5)cc4n3)c2)c1 [Compound 143, 4-morpholino-6-(pyrimidin-4-yl)-2-(4-(m-tolyl)-1H-pyrazol-1-yl)furo[3,2-d]pyrimidine]	1	48
0.0233	Cc1cccc(-c2ccn(-c3nc(N4CCOCC4)c4oc(C(=O)NCCCCN(C)C)cc4n3)n2)c1 [Compound 108, N-(4-(dimethylamino)butyl)-4-morpholino-2-(3-(m-tolyl)-1H-pyrazol-1-yl)furo[3,2-d]pyrimidine-6-carboxamide]		53
0.019	Cc1cccc(-c2ccn(-c3nc(N4CCOCC4)c4oc(-c5ccncc5)cc4n3)n2)c1 [Compound 89, 4-morpholino-6-(pyridin-4-yl)-2-(3-(m-tolyl)-1H-pyrazol-1-yl)furo[3,2-d]pyrimidine]		31.5
0.017	Cc1cccc(-c2ccn(-c3nc(N4CCOCC4)c4oc(C(=O)NCC5CC5)cc4n3)n2)c1 [Compound 97, N-(cyclopropylmethy 1)-4-morpholino-2-(3-(m-tolyl)-1H-pyrazol-1-yl)furo[3,2-d]pyrimidine-6-carboxamide]		16.5
0.015	Cc1cccc(-c2ccn(-c3nc(N4CCOCC4)c4oc(C(=O)NC5CC5)cc4n3)n2)c1 [Compound 96, N-cyclopropyl-4-morpholino-2-(3-(m-tolyl)-1H-pyrazol-1-yl)furo[3,2-d]pyrimidine-6-carboxamide]		17.5
0.0102	Cc1cccc(-c2cnn(-c3nc(N4CCOCC4)c4oc(C(=O)NC5COC5)cc4n3)c2)c1 [Compound 106, 4-morpholino-N-(oxetan-3-yl)-2-(4-(m-tolyl)-1H-pyrazol-1-yl)furo[3,2-d]pyrimidine-6-carboxamide]	1	53.5
0.0096	C[C@H](NC(=O)c1cc2nc(-n3cc(-c4ccccc4)cn3)nc(N3CCOCC3)c2o1)C1CC1 [Compound 114, (S)-N-(1-cyclopropylethyl)-4-morpholino-2-(4-phenyl-1H-pyrazol-1-yl)furo[3,2-d]pyrimidine-6-carboxamide]		61
0.0082	Cc1cccc(-c2cnn(-c3nc(N4CCOCC4)c4oc(C(=O)NCCCS(C)(=O)=O)cc4n3)c2)c1 [Compound 119, N-(3-(methylsulfonyl)propyl)-4-morpholino-2-(4-(m-tolyl)-1H-pyrazol-1-yl)furo[3,2-d]pyrimidine-6-carboxamide]		96.5
0.0039	Cc1cccc(-c2ccn(-c3nc(N4CCOCC4)c4oc(-c5ccccn5)cc4n3)n2)c1 [Compound 91, 4-morpholino-6-(pyridin-2-yl)-2-(3-(m-tolyl)-1H-pyrazol-1-yl)furo[3,2-d]pyrimidine]	1	24.5
0.0029	Cc1cccc(-c2cnn(-c3nc(N4CCOCC4)c4oc(C(=O)NCCCCN(C)C)cc4n3)c2)c1 [Compound 110, N-(4-(dimethylamino)butyl)-4-morpholino-2-(4-(m-tolyl)-1H-pyrazol-1-yl)furo[3,2-d]pyrimidine-6-carboxamide]		33
0.0012	Cc1cccc(-c2cnn(-c3nc(N4CCOCC4)c4oc(C(=O)NC5CCN(C)CC5)cc4n3)c2)c1 [Compound 121, N-(1-methylpiperidin-4-yl)-4-morpholino-2-(4-(m-tolyl)-1H-pyrazol-1-yl)furo[3,2-d]pyrimidine-6-carboxamide]		21.5
